Measured values from US12472168B2, “Ring-fused thiazolino 2-pyridones, methods for preparation thereof and their use in the treatment and/or prevention of a disease involving gram-positive bacteria” (Quretech Bio AB, priority 2017, dated 2025).
In brackets after ≈: the same amount, converted by molar mass.

How the values were obtained:
MRSA [1] = assay: Minimum Inhibitory Concentration (MIC) and Minimum Bactericidal Concentration (MBC) assays; assay type: cell-based, Methicillin-resistant Staphylococcus aureus; conditions: Staphylococcus aureus, compound alone, no antibiotic; for MIC: 18 h, overnight (18 hrs), read-out: MIC
Protocol: (§1) MIC was defined by the lowest concentration of the test compound that inhibits visible growth of pathogen of interest. The optical density of the pathogen of interest culture was measured by OD600.
(§2) MBC was determined colony forming units (CFUs) enumeration by serially diluting and plating bacterial cultures on BHI plates.
(§3) Thus, no antibiotic was used in Table 2.

Staph. aureus = assay: MIC and MBC assays; assay type: cell-based; conditions: Staphylococcus aureus, compound alone, no antibiotic; for MIC: overnight (18 hrs)
Protocol: (§4) […]. MIC was defined by the lowest concentration of the test compound that inhibits visible growth of pathogen of interest. The optical density of the pathogen of interest culture was measured by OD600.
(§5) […]. MBC was determined colony forming units (CFUs) enumeration by serially diluting and plating bacterial cultures on BHI plates.
(§6) . Thus, no antibiotic was used in Table 2.

Staph. saphyticus = assay: MIC and MBC assays; assay type: cell-based; conditions: Staphylococcus, compound alone, no antibiotic; for MIC: overnight (18 hrs)
Protocol: as §4, §5, §6

Strep. pyogenes = assay: MIC and MBC assays; assay type: cell-based; conditions: Streptococcus pyogenes, compound alone, no antibiotic; for MIC: overnight (18 hrs)
Protocol: as §4, §5, §6

E. faecalis = assay: MIC and MBC assays; assay type: cell-based; conditions: Enterococcus faecalis, compound alone, no antibiotic; for MIC: overnight (18 hrs)
Protocol: as §1, §2, §3

C. diff = assay: MIC and MBC assays; assay type: cell-based, Clostridium difficile; conditions: Clostridioides difficile, compound alone, no antibiotic; for MIC: overnight (18 hrs)
Protocol: as §4, §5, §6

E. faecalis OG1RF = assay: Stand alone activity in vivo, mouse model of catheter-associated urinary tract infection (CAUTI); parameters: species or system Enterococcus faecalis; conditions: C57BL/6Ncr mice, 10 mg/kg intraperitoneally 24 hours post-infection, sacrificed 48 hours post-infection, compound alone
Protocol: Mice used in this study were six-week-old female wild-type C57BL/6Ncr mice. Mice were anesthetized by inhalation of isoflurane and implanted with a 5-mm length of platinum-cured silicone catheter. Then, mice were infected immediately following catheter implantation with 50 μl of ˜2×10^7 CFU of E. faecalis OG1RF in PBS (1 mL) was introduced in the bladder lumen by transurethral inoculation. […] Mice were sacrificed at 48 hours post-infection by cervical dislocation after anaesthesia inhalation, and the bladders were aseptically harvested. Subsequently, the silicone implant was retrieved from the bladder. Catheters were placed in 1×PBS (1 mL), sonicated for 10 min, to detach E. faecalis and bladders were homogenized in 1×PBS (1 mL).
Mice used in this study were six-week-old female wild-type C57BL/6Ncr mice. Mice were anesthetized by inhalation of isoflurane and implanted with a 5-mm length of platinum-cured silicone catheter.
Mice were sacrificed at 48 hours post-infection by cervical dislocation after anaesthesia inhalation, and the bladders were aseptically harvested. Subsequently, the silicone implant was retrieved from the bladder. Catheters were placed in 1×PBS (1 mL), sonicated for 10 min, to detach E. faecalis and bladders were homogenized in 1×PBS (1 mL). For bacterial enumeration on catheters and bladder, samples were serially diluted and plated on BHI for CFU enumeration.

Streptococcus = assay: MIC and MBC assays; assay type: cell-based; conditions: compound alone, no antibiotic
Protocol: as §1, §2, §3

MRSA [2] = assay: Effect of combination with Oxacillin on MRSA, CFU counts; assay type: cell-based, Methicillin-resistant Staphylococcus aureus; conditions: Oxacillin 9 μM and DMSO (no test compound), 37° C. 18 h
Protocol: The mixture (200 μL) was incubated at 37° C. for 18 h. A control without the test compound was performed in the same way.

| SMILES | MIC (MRSA [1]) | MBC (MRSA [1]) | MBC (Staph. aureus) | MIC (Staph. aureus) | MBC (Staph. saphyticus) | MIC (Staph. saphyticus) | MBC (Strep. pyogenes) | MIC (Strep. pyogenes) | MBC (E. faecalis) | MIC (E. faecalis) | MBC (C. diff) | MIC (C. diff) | reduction of bacterial titers in the bladder (E. faecalis OG1RF) | reduction of bacterial titers on the catheters (E. faecalis OG1RF) | reduction of bacterial titers in the bladder (E. faecalis OG1RF; 10 mg/kg) | MBC (Streptococcus) | CFUs/ml (MRSA [2]; MRSA OD 0.001) | CFUs/ml (MRSA [2]; MRSA OD 0.1) | CFUs/ml (MRSA [2]; MRSA OD 1) |
| --- | --- | --- | --- | --- | --- | --- | --- | --- | --- | --- | --- | --- | --- | --- | --- | --- | --- | --- | --- |
| O=C(O)C1CSc2c(-c3cccc(C(F)(F)F)c3)c(Cc3c4ccccc4cc4ccccc34)cc(=O)n21 (stereo not drawn) [Example 37, 6-[(9-Anthryl)methyl]-4-oxo-7-[m-(trifluoromethyl)phenyl]-1-thia-3a-aza-3-indancarboxylic acid] | 25 µM (≈ 13.3 µg/mL) | 25 µM (≈ 13.3 µg/mL) | 50 µM (≈ 26.6 µg/mL) | 50 µM (≈ 26.6 µg/mL) | 25 µM (≈ 13.3 µg/mL) | > 500 µM | 12.5 µM (≈ 6.64 µg/mL) | 12.5 µM (≈ 6.64 µg/mL) | 400 µM (≈ 213 µg/mL) | 100 µM (≈ 53.2 µg/mL) | 50 µM (≈ 26.6 µg/mL) | 50 µM (≈ 26.6 µg/mL) | – | – | – | – | – | – | – |
| O=C(O)C1CSc2c(-c3cccc(C(F)(F)F)c3)c(Cc3cccc4ccccc34)cc(=O)n21 (stereo not drawn) [Example 38, 6-[(1-Naphthyl)methyl]-4-oxo-7-[m-(trifluoromethyl)phenyl]-1-thia-3a-aza-3-indancarboxylic acid] | 200 µM (≈ 96.3 µg/mL) | 250 µM (≈ 120 µg/mL) | 250 µM (≈ 120 µg/mL) | 200 µM (≈ 96.3 µg/mL) | 50 µM (≈ 24.1 µg/mL) | 250 µM (≈ 120 µg/mL) | 50 µM (≈ 24.1 µg/mL) | 50 µM (≈ 24.1 µg/mL) | 250 µM (≈ 120 µg/mL) | 200 µM (≈ 96.3 µg/mL) | 200 µM (≈ 96.3 µg/mL) | 200 µM (≈ 96.3 µg/mL) | – | – | – | – | – | – | – |
| COc1c(Cc2cccc3ccccc23)cc(=O)n2c(C(=O)O)c(-c3ccc(OCCCC(C)C)c(C)c3)sc12 [Example 23, 8-[4-(Isohexyloxy)-3-methyl-phenyl]-5-methoxy-4-[(1-naphthyl)methyl]-2-oxo-7-thia-1-azabicyclo[4.3.0]nona-3,5,8-triene-9-carboxylic acid] | 45 µM (≈ 25 µg/mL) | – | – | – | – | – | – | – | – | > 100 µM | – | – | about 1.5 log units | about 0.4 log units | – | – | – | – | – |
| COc1c(Cc2cccc3ccccc23)cc(=O)n2c(C(=O)O)c(-c3ccc(OCCCC(C)C)c(C)c3)sc12 [Example 50, 1H-imidazol-1-ium 8-methoxy-2-(3-methyl-4((4-methylpentyl)oxy)phenyl)-7-(naphtalen-1-ylmethyl)-5-oxo-thiazolo[3,2-a]pyridine-3-carboxylate] | – | – | – | – | – | – | – | – | – | – | – | – | – | – | about 0.5 log units | – | – | – | – |
| O=C(O)c1c(Cc2ccccc2)sc2c(C3CC3)c(Cc3cccc4ccccc34)cc(=O)n12 [Example 28, 8-Benzyl-5-cyclopropyl-4-[(1-naphthyl)methyl]-2-oxo-7-thia-1-azabicyclo[4.3.0]nona-3,5,8-triene-9-carboxylic acid] | 25 µM (≈ 11.6 µg/mL) | 50 µM (≈ 23.3 µg/mL) | 50 µM (≈ 23.3 µg/mL) | 25 µM (≈ 11.6 µg/mL) | 25 µM (≈ 11.6 µg/mL) | 100 µM (≈ 46.6 µg/mL) | 25 µM (≈ 11.6 µg/mL) | 12.5 µM (≈ 5.82 µg/mL) | 100 µM (≈ 46.6 µg/mL) | 25 µM (≈ 11.6 µg/mL) | 50 µM (≈ 23.3 µg/mL) | 50 µM (≈ 23.3 µg/mL) | about 0.5 log units | about 0.4 log units | – | – | – | – | – |
| CCCCCCOc1ccc(-c2sc3c(C4CC4)c(Cc4cccc5ccccc45)cc(=O)n3c2C(=O)O)cc1C [Example 1, 5-Cyclopropyl-8-[4-(hexyloxy)-3-methyl-phenyl]-4-[(1-naphthyl)methyl]-2-oxo-7-thia-1-azabicyclo[4.3.0]nona-3,5,8-triene-9-carboxylic acid] | 20 µM (≈ 11.3 µg/mL) | 25 µM (≈ 14.1 µg/mL) | – | – | – | – | – | – | 25 µM (≈ 14.1 µg/mL) | 67 µM (≈ 37.9 µg/mL) | – | – | – | – | – | 9 µM (≈ 5.09 µg/mL) | – | – | – |
| CCCCOc1ccc(-c2sc3c(C4CC4)c(Cc4cccc5ccccc45)cc(=O)n3c2C(=O)O)cc1 [Example 13, 8-(p-Butoxyphenyl)-5-cyclopropyl-4-[(1-naphthyl)methyl]-2-oxo-7-thia-1-azabicyclo[4.3.0]nona-3,5,8-triene-9-carboxylic acid] | 31 µM (≈ 16.2 µg/mL) | 25 µM (≈ 13.1 µg/mL) | – | – | – | – | – | – | – | 300 µM (≈ 157 µg/mL) | – | – | – | – | – | 3 µM (≈ 1.57 µg/mL) | – | – | – |
| Cc1onc(-c2ccccc2)c1C(=O)N[C@@H]1C(=O)N2[C@@H]1SC(C)(C)[C@@H]2C(=O)O [Oxacillin, oxacillin, reference compound] | – | – | – | – | – | – | – | – | – | – | – | – | – | – | – | – | 600 CFUs/ml | 1.6E+10 CFUs/ml | 2.2E+09 CFUs/ml |
| CCCOc1ccc(-c2sc3c(OC)c(Cc4cccc5ccccc45)cc(=O)n3c2C(=O)O)cc1C [Example 10, 5-Methoxy-4-[(1-naphthyl)methyl]-2-oxo-8-(4-propoxy-3-methyl-phenyl)-7-thia-1-azabicyclo[4.3.0]nona-3,5,8-triene-9-carboxylic acid] | 17 µM (≈ 8.73 µg/mL) | 17 µM (≈ 8.73 µg/mL) | – | – | – | – | – | – | 50 µM (≈ 25.7 µg/mL) | 188 µM (≈ 96.6 µg/mL) | – | – | – | – | – | 5 µM (≈ 2.57 µg/mL) | – | – | – |
| Cc1cccc(-c2sc3c(C4CC4)c(Cc4cccc5ccccc45)cc(=O)n3c2C(=O)O)c1 [Example 30, 5-Cyclopropyl-4-[(1-naphthyl)methyl]-2-oxo-8-(m-tolyl)-7-thia-1-azabicyclo[4.3.0]nona-3,5,8-triene-9-carboxylic acid] | 25 µM (≈ 11.6 µg/mL) | 50 µM (≈ 23.3 µg/mL) | 50 µM (≈ 23.3 µg/mL) | 50 µM (≈ 23.3 µg/mL) | 12.5 µM (≈ 5.82 µg/mL) | 100 µM (≈ 46.6 µg/mL) | 12.5 µM (≈ 5.82 µg/mL) | 25 µM (≈ 11.6 µg/mL) | 100 µM (≈ 46.6 µg/mL) | 50 µM (≈ 23.3 µg/mL) | 50 µM (≈ 23.3 µg/mL) | 50 µM (≈ 23.3 µg/mL) | about 1.5 log units | about 1 log units | – | 19 µM (≈ 8.85 µg/mL) | – | – | – |
| O=C(O)C1C(c2ccccc2)Sc2c(-c3ccc4c(c3)OCO4)c(COc3cccc4ccccc34)cc(=O)n21 (stereo not drawn) [Example 39, 6-[(1-Naphthyloxy)methyl]-4-oxo-2-phenyl-7-(1,3-Dioxa-5-indanyl)-1-thia-3a-aza-3-indancarboxylic acid] | 50 µM (≈ 27.5 µg/mL) | 50 µM (≈ 27.5 µg/mL) | 200 µM (≈ 110 µg/mL) | 50 µM (≈ 27.5 µg/mL) | 25 µM (≈ 13.7 µg/mL) | > 500 µM | 25 µM (≈ 13.7 µg/mL) | 12.5 µM (≈ 6.87 µg/mL) | 900 µM (≈ 495 µg/mL) | 400 µM (≈ 220 µg/mL) | 100 µM (≈ 55 µg/mL) | 100 µM (≈ 55 µg/mL) | – | – | – | – | – | – | – |
